≈ marks a conversion by molar mass, not a printed value.
Tests used:
Type in all cases: functional
Bacillus subtilis = experiment: Antibacterial activity against Bacillus subtilis ATCC 9372 incubated for 24 hrs by CLSI protocol based broth microdilution method; details: ATCC 9372, 24 h
Bacillus pumilus = experiment: Antibacterial activity against Bacillus pumilus CMCC63202 incubated for 24 hrs by CLSI protocol based broth microdilution method; details: CMCC63202, 24 h
Staphylococcus aureus [1] = experiment: Antibacterial activity against Staphylococcus aureus ATCC 25923 incubated for 24 hrs by CLSI protocol based broth microdilution method; details: ATCC 25923, 24 h
Staphylococcus aureus [2] = experiment: Antibacterial activity against methicillin-resistant Staphylococcus aureus ATCC 43300 incubated for 24 hrs by CLSI protocol based broth microdilution method; details: ATCC 43300, 24 h
Staphylococcus aureus [3] = experiment: Antibacterial activity against penicillin-resistant Staphylococcus aureus clinical isolate incubated for 24 hrs by CLSI protocol based broth microdilution method
Staphylococcus aureus [4] = experiment: Antibacterial activity against Staphylococcus aureus clinical isolate incubated for 24 hrs by CLSI protocol based broth microdilution method
Escherichia coli = experiment: Antibacterial activity against Escherichia coli ATCC 25922 incubated for 24 hrs by CLSI protocol based broth microdilution method; details: ATCC 25922, 24 h
Pseudomonas aeruginosa = experiment: Antibacterial activity against Pseudomonas aeruginosa ATCC 27853 incubated for 24 hrs by CLSI protocol based broth microdilution method; details: ATCC 27853, 24 h

SMILES | MIC (Bacillus subtilis) [µg/mL] | MIC (Bacillus pumilus) [µg/mL] | MIC (Staphylococcus aureus [1]) [µg/mL] | MIC (Staphylococcus aureus [2]) [µg/mL] | MIC (Staphylococcus aureus [3]) [µg/mL] | MIC (Staphylococcus aureus [4]) [µg/mL] | MIC (Escherichia coli) [µg/mL] | MIC (Pseudomonas aeruginosa) [µg/mL]
CC(C)(C)c1ccc(-c2nn(COc3ccc(F)c(C(N)=O)c3F)c(=O)o2)cc1 | 8 (≈ 19.8 µM) | 32 (≈ 79.3 µM) | > 64 | > 64 | > 64 | > 64 | > 64 | > 64
Cc1ccccc1-n1nc(COc2ccc(F)c(C(N)=O)c2F)oc1=O | 16 (≈ 44.3 µM) | 16 (≈ 44.3 µM) | > 64 | 64 (≈ 177 µM) | > 64 | > 64 | > 64 | > 64
NC(=O)c1c(F)ccc(OCc2nn(-c3ccc(Cl)c(Cl)c3)c(=O)o2)c1F | 4 (≈ 9.61 µM) | 4 (≈ 9.61 µM) | > 64 | 64 (≈ 154 µM) | > 64 | 64 (≈ 154 µM) | > 64 | > 64
N#Cc1ccc(-n2nc(COc3ccc(F)c(C(N)=O)c3F)oc2=O)cc1 | 2 (≈ 5.37 µM) | 4 (≈ 10.7 µM) | 4 (≈ 10.7 µM) | 4 (≈ 10.7 µM) | 8 (≈ 21.5 µM) | 16 (≈ 43 µM) | > 64 | > 64
Cc1cc(Cl)ccc1-n1nc(COc2ccc(F)c(C(N)=O)c2F)oc1=O | 0.5 (≈ 1.26 µM) | 0.5 (≈ 1.26 µM) | 4 (≈ 10.1 µM) | 2 (≈ 5.05 µM) | 4 (≈ 10.1 µM) | 4 (≈ 10.1 µM) | > 64 | > 64
CC(C)(C)c1ccc(-n2nc(COc3ccc(F)c(C(N)=O)c3F)oc2=O)cc1 | 1 (≈ 2.48 µM) | 2 (≈ 4.96 µM) | 8 (≈ 19.8 µM) | 8 (≈ 19.8 µM) | 16 (≈ 39.7 µM) | 16 (≈ 39.7 µM) | > 64 | > 64
NC(=O)c1c(F)ccc(OCc2nn(-c3ccc(Br)cc3)c(=O)n2Cc2ccccc2)c1F | > 64 | > 64 | > 64 | > 64 | > 64 |  | > 64 | > 64
CCCCCCCCn1c(COc2ccc(F)c(C(N)=O)c2F)nn(-c2ccc(Br)cc2)c1=O | > 64 | > 64 | > 64 | > 64 | > 64 |  | > 64 | > 64
NC(=O)c1c(F)ccc(OCc2nn(Cc3ccc(Br)cc3)c(=O)o2)c1F | 8 (≈ 18.2 µM) | 32 (≈ 72.7 µM) | > 64 | 64 (≈ 145 µM) | > 64 | 64 (≈ 145 µM) | > 64 | > 64
NC(=O)c1c(F)ccc(OCc2nn(-c3ccc(Cl)cc3)c(=O)o2)c1F | 0.25 (≈ 0.655 µM) | 2 (≈ 5.24 µM) | 1 (≈ 2.62 µM) | 2 (≈ 5.24 µM) | 2 (≈ 5.24 µM) | 2 (≈ 5.24 µM) | > 64 | > 64
CC(C)(C)c1ccc(Cn2nc(COc3ccc(F)c(C(N)=O)c3F)oc2=O)cc1 | 32 (≈ 76.7 µM) | 32 (≈ 76.7 µM) | > 64 | > 64 | > 64 | > 64 | > 64 | > 64
CCCn1c(COc2ccc(F)c(C(N)=O)c2F)nn(-c2ccc(Br)cc2)c1=O | 32 (≈ 68.5 µM) | > 64 | > 64 | 32 (≈ 68.5 µM) | > 64 |  | > 64 | > 64
NC(=O)c1c(F)ccc(OCc2nn(-c3ccc(C(F)(F)F)cc3)c(=O)o2)c1F | 0.125 (≈ 0.301 µM) | 2 (≈ 4.82 µM) | 4 (≈ 9.63 µM) | 2 (≈ 4.82 µM) | 4 (≈ 9.63 µM) | 4 (≈ 9.63 µM) | > 64 | > 64
CC[C@H]1OC(=O)[C@H](C)[C@@H](O[C@H]2C[C@@](C)(OC)[C@@H](O)[C@H](C)O2)[C@H](C)[C@@H](O[C@@H]2O[C@H](C)C[C@H](N(C)C)[C@H]2O)[C@](C)(O)C[C@@H](C)C(=O)[C@H](C)[C@@H](O)[C@]1(C)O [ERYTHROMYCIN] | ≤ 0.125 | ≤ 0.125 | ≤ 0.125 | > 64 |  | > 64 | 16 (≈ 21.8 µM) | 32 (≈ 43.6 µM)
Cn1c(COc2ccc(F)c(C(N)=O)c2F)nn(-c2ccc(Br)cc2)c1=O | 64 (≈ 146 µM) | 1 (≈ 2.28 µM) | > 64 | > 64 | > 64 |  | > 64 | > 64
CCCCc1ccc(-n2nc(COc3ccc(F)c(C(N)=O)c3F)oc2=O)cc1 | 0.015 (≈ 0.0372 µM) | 0.5 (≈ 1.24 µM) | > 64 | 64 (≈ 159 µM) | > 64 | 2 (≈ 4.96 µM) | > 64 | > 64
NC(=O)c1c(F)ccc(OCc2nn(-c3ccccc3)c(=O)o2)c1F | 4 (≈ 11.5 µM) | 64 (≈ 184 µM) | 16 (≈ 46.1 µM) | 16 (≈ 46.1 µM) | 32 (≈ 92.1 µM) | 16 (≈ 46.1 µM) | > 64 | > 64
CCCCn1c(COc2ccc(F)c(C(N)=O)c2F)nn(-c2ccc(Br)cc2)c1=O | > 64 | > 64 | > 64 | > 64 | > 64 |  | > 64 | > 64

SMILES | MIC (Bacillus subtilis) [µg/mL] | MIC (Bacillus pumilus) [µg/mL] | MIC (Staphylococcus aureus [1]) [µg/mL] | MIC (Staphylococcus aureus [2]) [µg/mL] | MIC (Staphylococcus aureus [3]) [µg/mL] | MIC (Staphylococcus aureus [4]) [µg/mL] | MIC (Escherichia coli) [µg/mL] | MIC (Pseudomonas aeruginosa) [µg/mL]
NC(=O)c1c(F)ccc(OCc2nn(-c3ccc(F)cc3)c(=O)o2)c1F | 2 (≈ 5.48 µM) | 8 (≈ 21.9 µM) | 16 (≈ 43.8 µM) | 8 (≈ 21.9 µM) | 16 (≈ 43.8 µM) | 2 (≈ 5.48 µM) | > 64 | > 64
NC(=O)c1c(F)ccc(OCc2nn(Cc3ccc(Cl)cc3)c(=O)o2)c1F | 8 (≈ 20.2 µM) | 32 (≈ 80.9 µM) | > 64 | 64 (≈ 162 µM) | > 64 | > 64 | > 64 | > 64
Cc1ccc(-n2nc(COc3ccc(F)c(C(N)=O)c3F)oc2=O)cc1 | 0.5 (≈ 1.38 µM) | 8 (≈ 22.1 µM) | 4 (≈ 11.1 µM) | 4 (≈ 11.1 µM) | 4 (≈ 11.1 µM) | 4 (≈ 11.1 µM) | > 64 | > 64
CN(C)n1c(COc2ccc(F)c(C(N)=O)c2F)nn(-c2ccc(Br)cc2)c1=O | 32 (≈ 68.3 µM) | 32 (≈ 68.3 µM) | 32 (≈ 68.3 µM) | 16 (≈ 34.2 µM) | 32 (≈ 68.3 µM) |  | > 64 | > 64
CCCCc1ccc(N2N=C(COc3ccc(F)c(C(N)=O)c3F)CC2=O)cc1 | > 64 | > 64 | > 64 | > 64 | 64 (≈ 159 µM) |  | > 64 | > 64
NC(=O)c1c(F)ccc(OCC2=NN(c3ccc(Cl)cc3)C(=O)C2)c1F | > 64 | > 64 | > 64 | > 64 | > 64 |  | > 64 | > 64
CC(C)(C)c1ccc(-n2nc(CCOc3ccc(F)c(C(N)=O)c3F)oc2=O)cc1 | 0.25 (≈ 0.599 µM) | ≤ 0.125 | 4 (≈ 9.58 µM) | 1 (≈ 2.4 µM) | 4 (≈ 9.58 µM) | 2 (≈ 4.79 µM) | > 64 | > 64
NC(=O)c1c(F)ccc(OCc2nn(-c3cccc(Cl)c3)c(=O)o2)c1F | 8 (≈ 21 µM) | > 64 | > 64 | > 64 | > 64 | > 64 | > 64 | > 64
COc1ccc(-n2nc(COc3ccc(F)c(C(N)=O)c3F)oc2=O)cc1 | 1 (≈ 2.65 µM) | 8 (≈ 21.2 µM) | 2 (≈ 5.3 µM) | 4 (≈ 10.6 µM) | 4 (≈ 10.6 µM) | 4 (≈ 10.6 µM) | > 64 | > 64
CC(C)c1ccc(-n2nc(COc3ccc(F)c(C(N)=O)c3F)oc2=O)cc1 | 1 (≈ 2.57 µM) | 2 (≈ 5.14 µM) | 16 (≈ 41.1 µM) | 16 (≈ 41.1 µM) | 32 (≈ 82.2 µM) | 16 (≈ 41.1 µM) | > 64 | > 64
Cc1cccc(-n2nc(COc3ccc(F)c(C(N)=O)c3F)oc2=O)c1 | 16 (≈ 44.3 µM) | 64 (≈ 177 µM) | 64 (≈ 177 µM) | 64 (≈ 177 µM) | > 64 | 64 (≈ 177 µM) | > 64 | > 64
NC(=O)c1c(F)ccc(OCc2nn(-c3ccc(Br)cc3)c(=O)n2N)c1F | 16 (≈ 36.3 µM) | 64 (≈ 145 µM) | > 64 | > 64 | > 64 |  | > 64 | > 64
CC(C)(C)c1ccc(N2N=C(COc3ccc(F)c(C(N)=O)c3F)CC2=O)cc1 | > 64 | > 64 | > 64 | > 64 | 64 (≈ 159 µM) |  | > 64 | > 64
COc1cccc(-n2nc(COc3ccc(F)c(C(N)=O)c3F)oc2=O)c1 | 16 (≈ 42.4 µM) | > 64 | 64 (≈ 170 µM) | > 64 | > 64 | 64 (≈ 170 µM) | > 64 | > 64
NC(=O)c1c(F)ccc(OCc2nn(-c3ccc(Cl)cc3Cl)c(=O)o2)c1F | 1 (≈ 2.4 µM) | 0.5 (≈ 1.2 µM) | 4 (≈ 9.61 µM) | 2 (≈ 4.81 µM) | 4 (≈ 9.61 µM) | 4 (≈ 9.61 µM) | > 64 | > 64
CC(C)CCn1c(COc2ccc(F)c(C(N)=O)c2F)nn(-c2ccc(Br)cc2)c1=O | > 64 | > 64 | > 64 | > 64 | > 64 |  | > 64 | > 64
Cc1ccc(-c2nn(COc3ccc(F)c(C(N)=O)c3F)c(=O)o2)cc1 | > 64 | > 64 | > 64 | > 64 | > 64 | > 64 | > 64 | > 64
CC(C)Cn1c(COc2ccc(F)c(C(N)=O)c2F)nn(-c2ccc(Br)cc2)c1=O | > 64 | > 64 | > 64 | > 64 | > 64 |  | > 64 | > 64

Reference: ChEMBL document CHEMBL4387753 (Bioorg Med Chem, 2019)
